Reference: ChEMBL document CHEMBL1201861, “Genomics of Drug Sensitity in Cancer screening data, Wellcome Trust Sanger Institute”

Key:
DBTRG-05MG = test: cells; assay type: functional, cell-based; settings: Homo sapiens;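 note: cell viability assay measuring growth inhibition of human DBTRG-05MG cells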
Description: SANGER: Inhibition of human DBTRG-05MG cell growth in a cell viability assay.

G-361 = test: cells; assay type: functional, cell-based; settings: Homo sapiens
HSC-4 = test: cells; assay type: functional, cell-based; settings: Homo sapiens;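 note: growth inhibition of human HSC-4 cells, read out with a cell viability assay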
Description: SANGER: Inhibition of human HSC-4 cell growth in a cell viability assay.

HT-1080 = test: cells; assay type: functional, cell-based; settings: Homo sapiens
Description: SANGER: Inhibition of human HT-1080 cell growth in a cell viability assay.

KOSC-2 = test: cells; assay type: functional, cell-based; settings: Homo sapiens;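 note: growth inhibition of KOSC-2 cells, read out by a cell viability assay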
Description: SANGER: Inhibition of human KOSC-2 cell growth in a cell viability assay.

PANC-03-27 = test: cells; assay type: functional, cell-based; settings: Homo sapiens
Description: SANGER: Inhibition of human PANC-03-27 cell growth in a cell viability assay.

RPMI 8402 = test: SANGER: Inhibition of human RPMI-8402 cell growth in a cell viability assay.; assay type: functional, cell-based; settings: Homo sapiens, RPMI 8402
SJRH30 = test: cells; assay type: functional, cell-based; settings: Homo sapiens;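 note: growth inhibition of human SJRH30 cells, read out with a cell viability assay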
Description: SANGER: Inhibition of human SJRH30 cell growth in a cell viability assay.

ST486 = test: SANGER: Inhibition of human ST486 cell growth in a cell viability assay.; assay type: functional, cell-based; settings: Homo sapiens, ST486
AN3-CA = test: cells; assay type: functional, cell-based; settings: Homo sapiens;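 note: growth inhibition of human AN3-CA cells measured by a cell viability assay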
Description: SANGER: Inhibition of human AN3-CA cell growth in a cell viability assay.

BL-70 = test: SANGER: Inhibition of human BL-70 cell growth in a cell viability assay.; assay type: functional, cell-based; settings: Homo sapiens, BL-70
COLO-792 = test: cells; assay type: functional, cell-based; settings: Homo sapiens
Description: SANGER: Inhibition of human COLO-792 cell growth in a cell viability assay.

COR-L105 = test: cells; assay type: functional, cell-based; settings: Homo sapiens
Description: SANGER: Inhibition of human COR-L105 cell growth in a cell viability assay.

CP50-MEL-B = test: cells; assay type: functional, cell-based; settings: Homo sapiens;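 note: growth inhibition of the human cell line, measured with a cell viability read-out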
Description: SANGER: Inhibition of human CP50-MEL-B cell growth in a cell viability assay.

CP66-MEL = test: cells; assay type: functional, cell-based; settings: Homo sapiens;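 note: growth inhibition of CP66-MEL cells determined in a cell viability assay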
Description: SANGER: Inhibition of human CP66-MEL cell growth in a cell viability assay.

EHEB = test: cells; assay type: functional, cell-based; settings: Homo sapiens;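 note: growth inhibition of human EHEB cells, read out with a cell viability assay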
Description: SANGER: Inhibition of human EHEB cell growth in a cell viability assay.

ESS-1 = test: cells; assay type: functional, cell-based; settings: Homo sapiens;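 note: growth inhibition of human ESS-1 cells, read out by a cell viability assay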
Description: SANGER: Inhibition of human ESS-1 cell growth in a cell viability assay.

GMS-10 = test: cells; assay type: functional, cell-based; settings: Homo sapiens;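 note: growth inhibition of GMS-10 cells, read out as cell viability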
Description: SANGER: Inhibition of human GMS-10 cell growth in a cell viability assay.

HCC1419 = test: cells; assay type: functional, cell-based; settings: Homo sapiens;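 note: growth inhibition of human HCC1419 cells, read out as cell viability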
Description: SANGER: Inhibition of human HCC1419 cell growth in a cell viability assay.

Hs-578T = test: cells; assay type: functional, cell-based; settings: Homo sapiens
Description: SANGER: Inhibition of human Hs-578-T cell growth in a cell viability assay.

KMS-12-PE = test: cells; assay type: functional, cell-based, Homo sapiens; settings: Homo sapiens, KMS-12-PE;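 note: growth inhibition of human KMS-12-PE cells, measured with a cell viability assay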
Description: SANGER: Inhibition of human KMS-12-PE cell growth in a cell viability assay.

KYSE-180 = test: cells; assay type: functional, cell-based; settings: Homo sapiens;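 note: growth inhibition of KYSE-180 cells, read out with a cell viability assay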
Description: SANGER: Inhibition of human KYSE-180 cell growth in a cell viability assay.

KYSE-410 = test: cells; assay type: functional, cell-based; settings: Homo sapiens;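 note: growth inhibition of KYSE-410 cells, measured through a cell viability readout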
Description: SANGER: Inhibition of human KYSE-410 cell growth in a cell viability assay.

KYSE-450 = test: cells; assay type: functional, cell-based; settings: Homo sapiens;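 note: cell growth inhibition measured by a viability assay in human KYSE-450 cells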
Description: SANGER: Inhibition of human KYSE-450 cell growth in a cell viability assay.

MC-CAR = test: cells; assay type: functional, cell-based, Homo sapiens; settings: Homo sapiens, MC-CAR;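 note: growth inhibition of the human MC-CAR cell line, read out by a cell viability assay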
Description: SANGER: Inhibition of human MC-CAR cell growth in a cell viability assay.

MDA-MB-175-VII = test: cells; assay type: functional, cell-based; settings: Homo sapiens
MDA-MB-361 = test: cells; assay type: functional, cell-based; settings: Homo sapiens
MDA-MB-415 = test: cells; assay type: functional, cell-based; settings: Homo sapiens
NCI-H1522 = test: cells; assay type: functional, cell-based, Homo sapiens; settings: Homo sapiens, NCI-H1522;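 note: growth inhibition of NCI-H1522 cells, read out with a cell viability assay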
Description: SANGER: Inhibition of human NCI-H1522 cell growth in a cell viability assay.

NCI-H1563 = test: cells; assay type: functional, cell-based; settings: Homo sapiens;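 note: growth inhibition of human NCI-H1563 cells, read out with a cell viability assay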
Description: SANGER: Inhibition of human NCI-H1563 cell growth in a cell viability assay.

NCI-H2009 = test: cells; assay type: functional, cell-based; settings: Homo sapiens;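 note: cell viability assay measuring inhibition of NCI-H2009 cell growth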
Description: SANGER: Inhibition of human NCI-H2009 cell growth in a cell viability assay.

NCI-H2171 = test: cells; assay type: functional, cell-based, Homo sapiens; settings: Homo sapiens, NCI-H2171;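 note: growth inhibition of human NCI-H2171 cells, read out by a cell viability assay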
Description: SANGER: Inhibition of human NCI-H2171 cell growth in a cell viability assay.

NCI-H345 = test: cells; assay type: functional, cell-based, Homo sapiens; settings: Homo sapiens, NCI-H345;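 note: growth inhibition of NCI-H345 cells measured with a cell viability assay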
Description: SANGER: Inhibition of human NCI-H345 cell growth in a cell viability assay.

NCI-H650 = test: cells; assay type: functional, cell-based; settings: Homo sapiens;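 note: growth inhibition of NCI-H650 cells, read out by a viability assay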
Description: SANGER: Inhibition of human NCI-H650 cell growth in a cell viability assay.

NUGC-3 = test: cells; assay type: functional, cell-based; settings: Homo sapiens;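 note: growth inhibition of human NUGC-3 cells, read out with a cell viability assay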
Description: SANGER: Inhibition of human NUGC-3 cell growth in a cell viability assay.

OE19 = test: cells; assay type: functional, cell-based; settings: Homo sapiens;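 note: growth inhibition of OE19 cells, measured through a cell viability read-out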
Description: SANGER: Inhibition of human OE19 cell growth in a cell viability assay.

OPM-2 = test: cells; assay type: functional, cell-based, Homo sapiens; settings: Homo sapiens, OPM-2;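 note: growth of OPM-2 cells measured with a viability assay, IC50 for suppression of proliferation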
Description: SANGER: Inhibition of human OPM-2 cell growth in a cell viability assay.

RPMI-7951 = test: cells; assay type: functional, cell-based; settings: Homo sapiens
Description: SANGER: Inhibition of human RPMI-7951 cell growth in a cell viability assay.

SAS = test: cells; assay type: functional, cell-based; settings: Homo sapiens;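 note: growth inhibition of SAS cells, read out with a cell viability assay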
Description: SANGER: Inhibition of human SAS cell growth in a cell viability assay.

SK-LU-1 = test: cells; assay type: functional, cell-based; settings: Homo sapiens;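 note: cell viability assay measuring growth inhibition of human SK-LU-1 cells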
Description: SANGER: Inhibition of human SK-LU-1 cell growth in a cell viability assay.

SK-MM-2 = test: cells; assay type: functional, cell-based, Homo sapiens; settings: Homo sapiens, SK-MM-2;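 note: growth inhibition of human SK-MM-2 cells, read out with a cell viability assay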
Description: SANGER: Inhibition of human SK-MM-2 cell growth in a cell viability assay.

SKG-IIIa = test: cells; assay type: functional, cell-based; settings: Homo sapiens;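 note: cell growth inhibition, read out with a cell viability assay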
Description: SANGER: Inhibition of human SKG-IIIa cell growth in a cell viability assay.

SN12C = test: cells; assay type: functional, cell-based; settings: Homo sapiens;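 note: growth inhibition of human SN12C cells, measured by a cell viability assay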
Description: SANGER: Inhibition of human SN12C cell growth in a cell viability assay.

SW756 = test: cells; assay type: functional, cell-based; settings: Homo sapiens;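 note: growth inhibition of human SW756 cells, read out with a cell viability assay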
Description: SANGER: Inhibition of human SW756 cell growth in a cell viability assay.

SiHa = test: cells; assay type: functional, cell-based; settings: Homo sapiens;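 note: Viability-based readout of growth inhibition in SiHa cells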
Description: SANGER: Inhibition of human SiHa cell growth in a cell viability assay.

TALL-1 = test: cells; assay type: functional, cell-based, Homo sapiens; settings: Homo sapiens, TALL-1;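 note: growth inhibition of cultured human TALL-1 cells, read out by a cell viability assay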
Description: SANGER: Inhibition of human TALL-1 cell growth in a cell viability assay.

8505C = test: cells; assay type: functional, cell-based; settings: Homo sapiens
Description: SANGER: Inhibition of human 8505C cell growth in a cell viability assay.

A 172 = test: cells; assay type: functional, cell-based; settings: Homo sapiens;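 note: growth inhibition of A172 cells, measured with a cell viability readout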
Description: SANGER: Inhibition of human A172 cell growth in a cell viability assay.

AGS = test: cells; assay type: functional, cell-based; settings: Homo sapiens;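 note: growth inhibition of AGS cells, determined with a cell viability assay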
Description: SANGER: Inhibition of human AGS cell growth in a cell viability assay.

BT-20 = test: cells; assay type: functional, cell-based; settings: Homo sapiens;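 note: cell viability assay measuring suppression of growth in human BT-20 cells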
Description: SANGER: Inhibition of human BT-20 cell growth in a cell viability assay.

CAL-12T = test: cells; assay type: functional, cell-based; settings: Homo sapiens;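 note: growth inhibition of human CAL-12T cells, read out with a cell viability assay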
Description: SANGER: Inhibition of human CAL-12T cell growth in a cell viability assay.

TE-15 = test: cells; assay type: functional, cell-based, Homo sapiens; settings: Homo sapiens, TE-15;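 note: cell viability readout of growth inhibition in TE-15 cells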
Description: SANGER: Inhibition of human TE-15 cell growth in a cell viability assay.

TE-441-T = test: cells; assay type: functional, cell-based, Homo sapiens; settings: Homo sapiens, TE-441-T
Description: SANGER: Inhibition of human TE-441-T cell growth in a cell viability assay.

U-118-MG = test: cells; assay type: functional, cell-based; settings: Homo sapiens
Description: SANGER: Inhibition of human U-118-MG cell growth in a cell viability assay.

YAPC = test: cells; assay type: functional, cell-based; settings: Homo sapiens;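 note: growth inhibition of YAPC cells, measured with a cell viability assay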
Description: SANGER: Inhibition of human YAPC cell growth in a cell viability assay.

COLO-678 = test: cells; assay type: functional, cell-based; settings: Homo sapiens
Description: SANGER: Inhibition of human COLO-678 cell growth in a cell viability assay.

COLO-679 = test: cells; assay type: functional, cell-based; settings: Homo sapiens
Description: SANGER: Inhibition of human COLO-679 cell growth in a cell viability assay.

COLO-680N = test: cells; assay type: functional, cell-based; settings: Homo sapiens;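 note: cell viability assay used to measure inhibition of COLO-680N cell growth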
Description: SANGER: Inhibition of human COLO-680N cell growth in a cell viability assay.

D-336MG = test: cells; assay type: functional, cell-based, Homo sapiens; settings: Homo sapiens, D-336MG
Description: SANGER: Inhibition of human D-336MG cell growth in a cell viability assay.

HuO9 = test: cells; assay type: functional, cell-based; settings: Homo sapiens;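 note: growth inhibition of HuO9 cells, read out with a cell viability assay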
Description: SANGER: Inhibition of human HuO9 cell growth in a cell viability assay.

In the case of CO[C@@H]1[C@H](N(C)C(=O)c2ccccc2)C[C@H]2O[C@]1(C)n1c3ccccc3c3c4c(c5c6ccccc6n2c5c31)C(=O)NC4 [MIDOSTAURIN], the IC50 (DBTRG-05MG) is reported as greater than 0.512 µM, the IC50 (G-361) is reported as 0.209 µM and the IC50 (HSC-4) is reported as greater than 0.512 µM. It also gave an IC50 (HT-1080) of 0.16 µM, an IC50 (KOSC-2) greater than 0.512 µM and an IC50 (PANC-03-27) of 0.16 µM. For the same compound, the IC50 (RPMI 8402) was greater than 0.512 µM, the IC50 (SJRH30) was greater than 0.512 µM and the IC50 (ST486) was 0.349 µM. For the same compound, the IC50 (AN3-CA) was 0.322 µM and the IC50 (BL-70) was greater than 0.512 µM.

Work on CCCCCCCCCCCC1=C(O)C(=O)C=C(O)C1=O [EMBELIN] yielded an IC50 (COLO-792) greater than 32 µM, an IC50 (COR-L105) of 22.3 µM and an IC50 (CP50-MEL-B) greater than 32 µM. The IC50 (CP66-MEL) was 4.51 µM, the IC50 (DBTRG-05MG) was 15.4 µM and the IC50 (EHEB) was greater than 32 µM. It also gave an IC50 (ESS-1) of 9.42 µM, an IC50 (G-361) of 5.9 µM and an IC50 (GMS-10) of 23 µM. It also gave an IC50 (HCC1419) greater than 32 µM, an IC50 (HSC-4) of 11.1 µM and an IC50 (HT-1080) of 4.76 µM. It also gave an IC50 (Hs-578T) of 11.1 µM, an IC50 (KMS-12-PE) greater than 32 µM and an IC50 (KOSC-2) greater than 32 µM. For the same compound, the IC50 (KYSE-180) was 7.58 µM, the IC50 (KYSE-410) was 6.38 µM and the IC50 (KYSE-450) was 17.7 µM. The IC50 (MC-CAR) was 4.58 µM, the IC50 (MDA-MB-175-VII) was greater than 32 µM and the IC50 (MDA-MB-361) was 19.6 µM. It also gave an IC50 (MDA-MB-415) of 30 µM, an IC50 (NCI-H1522) of 30.6 µM and an IC50 (NCI-H1563) greater than 32 µM. It also gave an IC50 (NCI-H2009) of 11.9 µM, an IC50 (NCI-H2171) greater than 32 µM and an IC50 (NCI-H345) greater than 32 µM. The IC50 (NCI-H650) was 16.4 µM, the IC50 (NUGC-3) was 9.18 µM and the IC50 (OE19) was 29.7 µM. The IC50 (OPM-2) was greater than 32 µM, the IC50 (PANC-03-27) was greater than 32 µM and the IC50 (RPMI-7951) was 25.6 µM. For the same compound, the IC50 (RPMI 8402) was 4.05 µM, the IC50 (SAS) was 16.8 µM and the IC50 (SJRH30) was 7.97 µM. For the same compound, the IC50 (SK-LU-1) was 7.21 µM, the IC50 (SK-MM-2) was greater than 32 µM and the IC50 (SKG-IIIa) was greater than 32 µM. For the same compound, the IC50 (SN12C) was 26.6 µM, the IC50 (ST486) was 8.3 µM and the IC50 (SW756) was greater than 32 µM. It also gave an IC50 (SiHa) greater than 32 µM, an IC50 (TALL-1) greater than 32 µM and an IC50 (8505C) of 14.1 µM. For the same compound, the IC50 (A 172) was 8.78 µM, the IC50 (AGS) was 8.63 µM and the IC50 (AN3-CA) was 6.25 µM. It also gave an IC50 (BL-70) of 5.83 µM, an IC50 (BT-20) of 14.5 µM and an IC50 (CAL-12T) of 9.73 µM. For the same compound, the IC50 (TE-15) was 7.24 µM, the IC50 (TE-441-T) was greater than 32 µM and the IC50 (U-118-MG) was 29.1 µM. It also gave an IC50 (YAPC) greater than 32 µM, an IC50 (COLO-678) greater than 32 µM and an IC50 (COLO-679) of 4.2 µM. The IC50 (COLO-680N) was 19.4 µM.

Cc1ccc(-n2nc(C(C)(C)C)cc2NC(=O)Nc2ccc(OCCN3CCOCC3)c3ccccc23)cc1 [DORAMAPIMOD] showed an IC50 (COLO-792) greater than 10 µM, an IC50 (COR-L105) greater than 10 µM and an IC50 (CP50-MEL-B) greater than 10 µM. It also gave an IC50 (CP66-MEL) greater than 10 µM, an IC50 (D-336MG) greater than 10 µM and an IC50 (DBTRG-05MG) greater than 10 µM. It also gave an IC50 (ESS-1) greater than 10 µM, an IC50 (G-361) greater than 10 µM and an IC50 (GMS-10) greater than 10 µM. The IC50 (HCC1419) was greater than 10 µM, the IC50 (HT-1080) was greater than 10 µM and the IC50 (Hs-578T) was greater than 10 µM. For the same compound, the IC50 (HuO9) was greater than 10 µM, the IC50 (KOSC-2) was greater than 10 µM and the IC50 (KYSE-180) was greater than 10 µM. For the same compound, the IC50 (KYSE-410) was greater than 10 µM, the IC50 (KYSE-450) was greater than 10 µM and the IC50 (MDA-MB-175-VII) was greater than 10 µM. The IC50 (MDA-MB-361) was greater than 10 µM, the IC50 (MDA-MB-415) was greater than 10 µM and the IC50 (NCI-H1563) was greater than 10 µM. For the same compound, the IC50 (NCI-H2009) was greater than 10 µM, the IC50 (NCI-H650) was greater than 10 µM and the IC50 (NUGC-3) was greater than 10 µM. The IC50 (OE19) was greater than 10 µM, the IC50 (PANC-03-27) was greater than 10 µM and the IC50 (RPMI-7951) was greater than 10 µM. For the same compound, the IC50 (SAS) was greater than 10 µM, the IC50 (SJRH30) was greater than 10 µM and the IC50 (SK-LU-1) was greater than 10 µM. It also gave an IC50 (SKG-IIIa) greater than 10 µM, an IC50 (SN12C) greater than 10 µM and an IC50 (SW756) greater than 10 µM. It also gave an IC50 (SiHa) greater than 10 µM, an IC50 (8505C) greater than 10 µM and an IC50 (A 172) greater than 10 µM. It also gave an IC50 (AGS) greater than 10 µM, an IC50 (AN3-CA) greater than 10 µM and an IC50 (BT-20) greater than 10 µM. It also gave an IC50 (CAL-12T) greater than 10 µM, an IC50 (U-118-MG) greater than 10 µM and an IC50 (YAPC) greater than 10 µM. The IC50 (COLO-678) was greater than 10 µM, the IC50 (COLO-679) was greater than 10 µM and the IC50 (COLO-680N) was greater than 10 µM.
